What is called half-life is how long it takes for the measured level to halve. Lower therefore signals rapid decline.

A short description of data set [1]: Half life of the compound under anaerobic condition.
Data set [2] can be described thus: Half life of the compound.
Data set [3] can be described thus: Half life of the compound under aerobic condition.
Data set [4] concerns Erigeron canadensis. The data set can be described thus: Herbicidal activity against glyphosate-resistant Conyza canadensis (horseweed) assessed as residual control at 1120 g a.i./ha treated during autumn and spring measured 6 weeks after treatment. The data set is classed as functional.
The test system of data set [5] is Erigeron canadensis. Briefly: Herbicidal activity against glyphosate-resistant Conyza canadensis (horseweed) assessed as residual control at 1120 g a.i./ha treated during autumn and spring measured 4 weeks after treatment. The class given is functional.
Data set [6] has as its system Erigeron canadensis. The data set can be described thus: Herbicidal activity against glyphosate-resistant Conyza canadensis (horseweed) assessed as residual control at 1120 g a.i./ha treated during autumn and spring measured 8 weeks after treatment. The class given is functional.
Another data set relates to Gossypium hirsutum. Briefly: Toxicity in Gossypium hirsutum (cotton) assessed as formation of injury to cotton. The class given is organism-based. The conditions noted are these: in vivo.
Data set [7] has as its system Erigeron canadensis. Briefly: Herbicidal activity against glyphosate-resistant Conyza canadensis (horseweed) assessed as residual control at 71 g a.i./ha treated during autumn and spring measured 8 weeks after treatment. The class given is functional.
Data set [8] relates to Erigeron canadensis. The data set can be described thus: Herbicidal activity against glyphosate-resistant Conyza canadensis (horseweed) assessed as residual control at 71 g a.i./ha treated during autumn and spring measured 6 weeks after treatment. The data set is classed as functional.
For data set [9], the system named is Erigeron canadensis. The data set can be described thus: Herbicidal activity against glyphosate-resistant Conyza canadensis (horseweed) assessed as residual control at 71 g a.i./ha treated during autumn and spring measured 4 weeks after treatment. The class given is functional.
For data set [10], the system named is Erigeron canadensis. Briefly: Herbicidal activity against glyphosate-resistant Conyza canadensis (horseweed) assessed as residual control at 1400 g a.i./ha treated during autumn and spring measured 6 weeks after treatment. The data set is classed as functional.
Data set [11] relates to Erigeron canadensis. Briefly: Herbicidal activity against glyphosate-resistant Conyza canadensis (horseweed) assessed as residual control at 1400 g a.i./ha treated during autumn and spring measured 4 weeks after treatment. The data set is classed as functional.
Data set [12] deals with Erigeron canadensis. Briefly: Herbicidal activity against glyphosate-resistant Conyza canadensis (horseweed) assessed as residual control at 1400 g a.i./ha treated during autumn and spring measured 8 weeks after treatment. The data set is classed as functional.
In data set [13] the test system is Erigeron canadensis. The data set can be described thus: Herbicidal activity against glyphosate-resistant Conyza canadensis (horseweed) assessed as residual control at 1680 g a.i./ha treated during autumn and spring measured 6 weeks after treatment. The class given is functional.
Data set [14] relates to Erigeron canadensis. Briefly: Herbicidal activity against glyphosate-resistant Conyza canadensis (horseweed) assessed as residual control at 1680 g a.i./ha treated during autumn and spring measured 8 weeks after treatment. The class given is functional.
Data set [15] has as its system Erigeron canadensis. Briefly: Herbicidal activity against glyphosate-resistant Conyza canadensis (horseweed) assessed as residual control at 1680 g a.i./ha treated during autumn and spring measured 4 weeks after treatment. The data set is classed as functional.
Data set [16] deals with Erigeron canadensis. Briefly: Herbicidal activity against glyphosate-resistant Conyza canadensis (horseweed) assessed as residual control at 420 g a.i./ha treated during autumn and spring measured 4 weeks after treatment. The class given is functional.
Data set [17] concerns Erigeron canadensis. The data set can be described thus: Herbicidal activity against glyphosate-resistant Conyza canadensis (horseweed) assessed as residual control at 420 g a.i./ha treated during autumn and spring measured 6 weeks after treatment. The class given is functional.
The test system of data set [18] is Erigeron canadensis. The data set can be described thus: Herbicidal activity against glyphosate-resistant Conyza canadensis (horseweed) assessed as residual control at 420 g a.i./ha treated during autumn and spring measured 8 weeks after treatment. The data set is classed as functional.
In data set [19] the test system is Erigeron canadensis. Briefly: Herbicidal activity against glyphosate-resistant Conyza canadensis (horseweed) assessed as residual control at 47 g a.i./ha treated during autumn and spring measured 8 weeks after treatment. The class given is functional.
Data set [20] concerns Erigeron canadensis. Briefly: Herbicidal activity against glyphosate-resistant Conyza canadensis (horseweed) assessed as residual control at 47 g a.i./ha treated during autumn and spring measured 6 weeks after treatment. The data set is classed as functional.
Data set [21] concerns Erigeron canadensis. The data set can be described thus: Herbicidal activity against glyphosate-resistant Conyza canadensis (horseweed) assessed as residual control at 47 g a.i./ha treated during autumn and spring measured 4 weeks after treatment. The data set is classed as functional.

As for `COc1c(Cl)ccc(Cl)c1C(=O)O` [3,6 DICHLOROMETHOXYBENZOIC ACID], the half-life in data set [1] was 58 days; in data set [2] it was 7 days; in [3] it was 31 days.

Take `CN(C)C(=O)Nc1ccc(Cl)c(Cl)c1` [DCMU]: the Activity was 99% in the data set with Erigeron canadensis [4], 100% in the data set with Erigeron canadensis [5], 25% with Erigeron canadensis [6] and “Non-toxic” in the data set with Gossypium hirsutum.

Take `C#CCN1C(=O)COc2cc(F)c(N3C(=O)C4=C(CCCC4)C3=O)cc21` [FLUMIOXAZIN]: the Activity in the data set on Erigeron canadensis [7] is listed as 35%; in the data set on Erigeron canadensis [8], 99%; in the data set with Erigeron canadensis [9] it was 100%; with Gossypium hirsutum it was “Non-toxic”.

Regarding `CN(C)C(=O)Nc1cccc(C(F)(F)F)c1` [FLUOMETURON], the Activity with Erigeron canadensis [10] is 99%; in the data set on Erigeron canadensis [11], 98%; in the data set with Gossypium hirsutum it was “Non-toxic”; in the data set on Erigeron canadensis [12], 80%.

With `CNc1cnn(-c2cccc(C(F)(F)F)c2)c(=O)c1Cl` [NORFLURAZONE], the Activity with Erigeron canadensis [13] is 100%; in the data set with Erigeron canadensis [14] it was 100%; with Erigeron canadensis [15] it was 100%; with Gossypium hirsutum, “Non-toxic”.

As to `CCOc1cc(Oc2ccc(C(F)(F)F)cc2Cl)ccc1[N+](=O)[O-]` [OXYFLUORFEN], the Activity in the data set on Erigeron canadensis [16] is 100%; with Erigeron canadensis [17], 99%; with Gossypium hirsutum, “Non-toxic”; in the data set on Erigeron canadensis [18] it was 95%.

On to `CSc1nc(NC(C)C)nc(NC(C)C)n1` [PROMETRYN], for which the Activity in the data set with Erigeron canadensis [4] is reported as 98%; with Erigeron canadensis [5] it was 100%; in the data set with Erigeron canadensis [6], 20%; in the data set with Gossypium hirsutum, “Non-toxic”.

In the case of `COc1cc(OC)nc(Sc2cccc(Cl)c2C(=O)O)n1` [PYRITHIOBAC], the Activity result in the data set with Gossypium hirsutum is reported as “Non-toxic”; in the data set with Erigeron canadensis [19], 37%; with Erigeron canadensis [20], 72%; in the data set on Erigeron canadensis [21], 60%.

Values taken from ChEMBL document CHEMBL3046394, “Conyza canadensis (L.) Cronquist response to pre-plant application of residual herbicides in cotton (Gossypium hirsutum L.)” (Crop Prot, 2009).
